Source: BindingDB's records for doi:10.1016/j.chembiol.2017.01.003 (The University of Queensland, 2017)

Biological target: T1, Transcription factor SOX-18 (Mouse, UniProt P43680)
T1 sequence (P43680 whole entry): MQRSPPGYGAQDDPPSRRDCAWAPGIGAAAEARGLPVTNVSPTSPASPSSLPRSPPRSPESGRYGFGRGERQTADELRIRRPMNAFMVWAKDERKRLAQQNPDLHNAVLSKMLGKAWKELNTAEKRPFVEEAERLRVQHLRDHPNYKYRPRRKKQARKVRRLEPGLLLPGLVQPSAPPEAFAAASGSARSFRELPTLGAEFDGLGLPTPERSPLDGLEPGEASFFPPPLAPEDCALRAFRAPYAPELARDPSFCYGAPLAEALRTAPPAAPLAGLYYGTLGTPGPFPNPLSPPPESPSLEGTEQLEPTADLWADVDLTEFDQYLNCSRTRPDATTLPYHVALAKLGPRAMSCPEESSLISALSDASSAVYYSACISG
Test: Fluorescence Polarization Assay
Conditions: pH 7.5; 37 °C
Protocol: The DNA-binding competition assay was performed in 25 μL, in black 384-well plates, using either 30 mM HEPES (N-2-Hydroxyethylpiperazine-N'-2-Ethanesulfonic Acid) (pH 7.5, with 100 mM KCl, 40 mM NaCl, 10 mM NH4OAc, 10 mM Guanidinium, 2 mM MgCl2, 0.5 mM EDTA, 0.01% NP-40) for mouse full length SOX18, or Tris-NaCl (10 mM Tris pH 8.0 and 100 mM NaCl) for SOX-HMG fragments. All experiments were performed using a 40bp double-stranded Prox1-DNA element with 5' fluorescein amidite (FAM) label (Sigma Proligo or InVitrogen). Optimum binding levels were obtained at 200 nM of mouse full length SOX18 and 60 nM of SOX-HMG fragment, in presence of 5 nM labelled DNA. Controls consisted of free labelled DNA (low FP milli-Polarization index, mP), labelled DNA in presence of protein (negative control, high mP), and labelled DNA and protein in presence of 400 time competing excess of unlabelled DNA (positive control, low mP). Depending on compound, final DMSO concentrations ranged from 2 to 3.33% v/v. After mixing protein, DNA probe and compound, plates were sealed and briskly agitated in the dark for 5 minutes at room temperature, 10 minutes at 37 °C, and 30 minutes at room temperature, before reading fluorescencepolarization on a Tecan M1000Pro (λexc = 485 nm, λem = 525 nm). All experiments were performed intriplicates.

SMILES	IC50 [µM]
COc1cccc(CCCCCCc2ccccc2)c1C(=O)O [Sm8]	327
O=C(O)c1c(O)cccc1COCCC1C=CC=CC1 (stereo unspecified) [Sm5]	1110
O=C(O)c1c(O)cccc1CCc1ccc2ccccc2c1 [Sm4]	97.5

Next, values leading:

IC50 [µM]	SMILES
481	Cc1cccc2c(=O)c3c(O)cc(O)cc3oc12 [Sm13]
3800	COc1ccc(OCC(=O)c2ccc(O)cc2O)cc1 [Sm11]
2880	O=C(COc1ccc2ccccc2c1)c1ccc(O)cc1O [Sm12]
